Measured values reported in patent publication US20230390214A1, “ADHESIVE PATCH” (TOYO INK SC HOLDINGS CO., LTD., priority 2020, published 2023).

Test: Solubility of the drug in levulinic acid at 35° C. (visual observation)
Assay type: physicochemical
Settings: in 1 mL of levulinic acid at a liquid temperature of 35° C.
Protocol: The adhesive layer includes a drug. A drug that can be dissolved in levulinic acid is preferable. For example, it is preferable that 0.1 g or more of the drug can be dissolved in 1 mL of levulinic acid at a liquid temperature of 35° C.
Specifically, the solubility of the drug is determined as follows. One mL of levulinic acid is put into a test tube and kept at 35° C. to obtain liquid levulinic acid. To the liquid levulinic acid, 0.1 g of the drug is added to obtain a mixed liquid. While keeping the mixed liquid at 35° C., the mixed liquid in the test tube is vibrated for 10 minutes using an ultrasonic cleaner (e.g., a glasses cleaner). After removing the test tube from the ultrasonic cleaner and leaving it in an environment of 35° C. for 4 hours, the mixed liquid in the test tube is visually observed to check for the presence of residues or precipitates of the drug. In a case where no drug residues or precipitates are observed in the mixed liquid, it is determined that 0.1 g or more of the drug can be dissolved in 1 mL of levulinic acid at a liquid temperature of 35° C. Furthermore, in a case where drug residues or precipitates are observed in the mixed liquid, it is determined that 0.1 g or more of the drug cannot be dissolved in 1 mL of levulinic acid at a liquid temperature of 35° C.

Q: With `CCN1CCN(c2cc(-c3ccc(F)cc3)c3c(n2)CCCCCC3)CC1` [blonanserin] as the compound, how does the “Amount of drug that can be dissolved in 1 mL of levulinic acid” value (from here on “Amount of drug that can be dissolved”) read?
A: ≥ 0.1 g

Q: With `N=C(N)NC(=O)Cc1c(Cl)cccc1Cl` [guanfacine] as the compound, how does the “Amount of drug that can be dissolved” value read?
A: ≥ 0.1 g

Q: Which “Amount of drug that can be dissolved” value does the source give for `CCCN(CCc1cccs1)[C@H]1CCc2c(O)cccc2C1` [rotigotine] here?
A: ≥ 0.1 g
